Results published in ChEMBL document CHEMBL6087447, “Impact of Linker Composition on VHL PROTAC Cell Permeability” (J Med Chem, 2025).

Assay: Permeability of the compound in PBS buffer at pH 7.4 incubated for 16 hrs by LC-MS/MS based PAMPA assay
Format: ADME
Details: read-out: permeability

`Cc1ncsc1-c1ccc(CNC(=O)[C@@H]2C[C@@H](O)CN2C(=O)[C@@H](NC(=O)COCCOCCNC(=O)COc2cnc3c(C4CCN(C(=O)c5ccc(OC(F)(F)F)cc5)CC4)ncnc3c2)C(C)(C)C)cc1` gave a Papp at 16 h of 6.3 ×10⁻⁶ cm/s.
`Cc1ncsc1-c1ccc(CNC(=O)[C@@H]2C[C@@H](O)CN2C(=O)[C@@H](NC(=O)CN(C)CCCCCCOc2cnc3c(C4CCN(C(=O)c5ccc(OC(F)(F)F)cc5)CC4)ncnc3c2)C(C)(C)C)cc1` showed a Papp at 16 h of 6.67 ×10⁻⁶ cm/s.
`Cc1ncsc1-c1ccc(CNC(=O)[C@@H]2C[C@@H](O)CN2C(=O)[C@@H](NC(=O)Cc2ccc(OCCOc3cnc4c(C5CCN(C(=O)c6ccc(OC(F)(F)F)cc6)CC5)ncnc4c3)cc2)C(C)(C)C)cc1` showed a Papp at 16 h of 7.56 ×10⁻⁶ cm/s.
`Cc1ncsc1-c1ccc(CNC(=O)[C@@H]2C[C@@H](O)CN2C(=O)[C@@H](NC(=O)CCOCCOCCOc2cnc3c(C4CCN(C(=O)c5ccc(OC(F)(F)F)cc5)CC4)ncnc3c2)C(C)(C)C)cc1` showed a Papp at 16 h of 5.42 ×10⁻⁶ cm/s.
With `Cc1ncsc1-c1ccc(CNC(=O)[C@@H]2C[C@@H](O)CN2C(=O)[C@@H](NC(=O)CCOCCNC(=O)COc2cnc3c(C4CCN(C(=O)c5ccc(OC(F)(F)F)cc5)CC4)ncnc3c2)C(C)(C)C)cc1` the Papp at 16 h was 6.21 ×10⁻⁶ cm/s.
Molecule `Cc1ncsc1-c1ccc(CNC(=O)[C@@H]2C[C@@H](O)CN2C(=O)[C@@H](NC(=O)Cc2ccc(OCCOc3cnc4c(C5CCN(C(=O)c6ccc(OC(F)(F)F)cc6)CC5)ncnc4c3)cn2)C(C)(C)C)cc1` has a Papp at 16 h of 7.28 ×10⁻⁶ cm/s.
Work on `Cc1ncsc1-c1ccc(CNC(=O)[C@@H]2C[C@@H](O)CN2C(=O)[C@@H](NC(=O)CN2CCC(CCCOc3cnc4c(C5CCN(C(=O)c6ccc(OC(F)(F)F)cc6)CC5)ncnc4c3)CC2)C(C)(C)C)cc1` yielded a Papp at 16 h of 6.9 ×10⁻⁶ cm/s.
For `Cc1ncsc1-c1ccc(CNC(=O)[C@@H]2C[C@@H](O)CN2C(=O)[C@@H](NC(=O)COCc2cn(CCOc3cnc4c(C5CCN(C(=O)c6ccc(OC(F)(F)F)cc6)CC5)ncnc4c3)nn2)C(C)(C)C)cc1`, the Papp at 16 h was 7.94 ×10⁻⁶ cm/s.
Molecule `Cc1ncsc1-c1ccc(CNC(=O)[C@@H]2C[C@@H](O)CN2C(=O)[C@@H](NC(=O)CCCCCCCCOc2cnc3c(C4CCN(C(=O)c5ccc(OC(F)(F)F)cc5)CC4)ncnc3c2)C(C)(C)C)cc1` has a Papp at 16 h of 8.29 ×10⁻⁶ cm/s.
